Patent publication US6544985B2, “Dihydro-benzo [b][1,4]diazepin-2-one derivatives” (Hoffman-La Roche Inc., priority 2001, dated 2003)
pKi: −log10 of the molar value.

Assays:
[1] = molecular target: T1, recombinant rat mGluR2 expressed in CHO cells (Rattus norvegicus, UniProt P31421); test: [3H]-LY354740 binding on mGlu2 transfected CHO cell membranes (displacement binding assay)
T1 construct: expressed in transfected cells; vector pcDNA I-amp, construct pcD1mGR2
T1 sequence (P31421 19-872): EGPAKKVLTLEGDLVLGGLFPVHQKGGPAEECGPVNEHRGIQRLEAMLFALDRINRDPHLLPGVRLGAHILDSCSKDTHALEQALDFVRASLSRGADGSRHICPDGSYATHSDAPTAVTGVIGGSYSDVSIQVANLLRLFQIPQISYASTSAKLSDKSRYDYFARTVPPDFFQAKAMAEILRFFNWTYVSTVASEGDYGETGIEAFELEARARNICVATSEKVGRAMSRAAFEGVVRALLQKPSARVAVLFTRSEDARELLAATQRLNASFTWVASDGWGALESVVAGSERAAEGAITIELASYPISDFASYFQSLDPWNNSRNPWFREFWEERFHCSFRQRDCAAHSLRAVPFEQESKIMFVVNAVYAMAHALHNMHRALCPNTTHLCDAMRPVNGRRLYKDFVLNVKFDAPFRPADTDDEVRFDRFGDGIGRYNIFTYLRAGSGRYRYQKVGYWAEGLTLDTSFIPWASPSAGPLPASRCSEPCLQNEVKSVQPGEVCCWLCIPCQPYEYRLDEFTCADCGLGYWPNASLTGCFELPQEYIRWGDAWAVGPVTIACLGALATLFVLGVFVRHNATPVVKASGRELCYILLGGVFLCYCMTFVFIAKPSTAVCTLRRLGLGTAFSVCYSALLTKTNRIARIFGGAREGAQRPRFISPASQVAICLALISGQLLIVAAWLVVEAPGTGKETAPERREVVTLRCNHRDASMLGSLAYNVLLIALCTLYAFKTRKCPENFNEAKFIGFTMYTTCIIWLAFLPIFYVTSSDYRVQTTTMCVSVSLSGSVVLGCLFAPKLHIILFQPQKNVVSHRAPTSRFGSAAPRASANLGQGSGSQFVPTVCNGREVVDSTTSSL

Structure (SMILES)	pKi [1]	melting point
Cc1cc(-c2cccc(C3=Nc4cc(OCC(F)(F)F)c(-c5ccccc5F)cc4NC(=O)C3)c2)on1 [Example 24, 8-(2-Fluoro-phenyl)-4-[3-(3-methyl-isoxazol-5-yl)-phenyl]7-(2,2,2-trifluoro-ethoxy)-1,3-dihydro-benzo[b][1,4]diazepin-2-one]	7.52	218 to 220 °C
CN(C)c1cc2c(cc1Cl)NC(=O)CC(c1cccc(-n3cccn3)c1)=N2 [Example 52, 8-Chloro-7-dimethylamino-4-(3-pyrazol-1-yl-phenyl)-1,3-dihydro-benzo[b][1,4]diazepin-2-one]	6.96	231 to 234 °C
N#Cc1cc(C2=Nc3cc(OCC(F)(F)F)c(C(F)(F)F)cc3NC(=O)C2)ccn1 [Example 88, 4-[4-Oxo-8-(2,2,2-trifluoro-ethoxy)-7-trifluoromethyl-4,5-dihydro-3H-benzo[b][1,4]diazepin-2-yl]-pyridine-2-carbonitrile]	8.40	252 to 255 °C
CN(C)c1cc2c(cc1C(F)(F)F)NC(=O)CC(c1cccc(-c3cc(CN4CCOCC4)no3)c1)=N2 [Example 54, 7-Dimethylamino-4-[3-(3-morpholin-4-ylmethyl-isoxazol-5-yl)-phenyl]-8-trifluoromethyl-1,3-dihydro-benzo[b][1,4]diazepin-2-one]	6.90	165 °C
CN(C)c1cc2c(cc1Cl)NC(=O)CC(c1cccc(-c3nc(CO)cs3)c1)=N2 [Example 19, 8-Chloro-7-dimethylamino-4-[3-(4-hydroxymethyl-thiazol-2-yl)-phenyl]-1,3-dihydro-benzo[b][1,4]diazepin-2-one]	7.52	134 °C (dec.)

Next, values leading:

pKi [1]	melting point	Structure (SMILES)
7.34	211 to 212 °C	CCCc1oc(C)nc1-c1cccc(C2=Nc3cc(N(C)C)c(C(F)(F)F)cc3NC(=O)C2)c1 [Example 212, 7-Dimethylamino-4-[3-(2-methyl-5-propyl-oxazol-4-yl)-phenyl]-8-trifluoromethyl-1,3-dihydro-benzo[b][1,4]diazepin-2-one]
8.10	193 to 194 °C	CCCN(C)c1cc2c(cc1C(F)(F)F)NC(=O)CC(c1cccc(-c3nnc(CO)s3)c1)=N2 [Example 222, 4-[3-(5-Hydroxymethyl-[1,3,4]thiadiazol-2-yl)-phenyl]-7-(methyl-propyl-amino)-8-trifluoromethyl-1,3-dihydro-benzo[b][1,4]diazepin-2-one]
6.32	122 to 123 °C	CCNc1nc(-c2cccc(C3=Nc4cc(N(C)C)c(Cl)cc4NC(=O)C3)c2)cs1 [Example 195, 8-Chloro-7-dimethylamino-4-[3-(2-ethylamino-thiazol-4-yl)-phenyl]-1,3-dihydro-benzo[b][1,4]diazepin-2-one]
